Assay results published in patent publication US5132291A, “Antivirals and methods for increasing the antiviral activity of AZT” (priority 1989, dated 1992).

Experiments:
Type in all cases: cell-based
[1] = Lymphoblast assay, effects on cell growth, CEM T-cell line; details: human, cem cells, AICA riboside alone, read-out: reduction in T-cell growth
Experimental: (§1) Several lymphoblast lines were utilized in conjunction with varying doses of antiviral agents to determine their effects on cell growth. In this method a daily cell count over a period of time, post-addition of antiviral compounds, can be compared with the normal cell growth curve.
(§2) Two representative T-cell lines, SupT-1 and CEM, and a B-cell line, WI-L2, were grown to mid-log phase 5×10^5 cells/ml in 50 ml of RPMI 1640 (Irvine Scientific) supplemented with 10% heat-inactivated fetal calf serum (Gemini-Bioproducts) and 1% glutamine (Gibco) to standardize seeding conditions and to assure a population of logarithmically growing cells.
(§3) An appropriate number cf T-25 flasks (Corning) were seeded with evenly suspended cells at 0.5×10^5 cells/ml in 20 ml of fresh growth media. Including a control condition, each set of flasks was treated with a dose range of antiviral compound for each cell line. Each dose condition was repeated in triplicate. All flasks were incubated for 5 days at 37° C. in a 5% CO2 incubator.
(§4) Every 24 hours for 5 days, three 0.2 ml samples of each flask were diluted in 9.8 ml of isoton (Fisher Scientific) and counted on a cell counter (Coulter Co.). The average of each flask was recorded, and the average of each triplicate antiviral does was then averaged and recorded.

[2] = Lymphoblast assay, effects on cell growth, SupT-1 T-cell line; details: human, supt-1 cells, AICA riboside alone, SUP T-1, read-out: reduction in T-cell growth
Experimental: as §1, §2, §3, §4

[3] = tested on: BAG vector pseudotyped by MA (amphotrophic murine leukemia virus); experiment: U937/BAG+MA colony resistance assay titered on 208F rat fibroblasts; details: 500 μM AICA riboside
Experimental: A second, similar assay system was utilized in which a human macrophage line (U937) carrying the BAG retroviral vector construct (having neomycin resistance and beta-galactosidase marker genes), Cepko, PNAS, Vol. 84, p. 156-160 (1987), was infected with MA (amphotrophic MLV [murine leukemia virus]). MA was used to pseudotype the replication-defective BAG vector, which was then titered on 208F cells. According to this assay, the results of which are shown in FIG. 1c, 0.01 μM AZT and 500 μM AICA riboside were both effective against murine retroviruses. […]
In this colony-forming bioassay for the characterization of antiviral compounds against retroviruses, a replication-defective retroviral vector construct having the ability to confer neomycin-resistance (U937/BAG or N2) is psuedotyped, infects a single cell, and under neomycin selection, allows the recipient cell to form a colony. Since each infection yields a neomycin-resistant cell capable of producing a discrete group of cells, colonies can be counted, resulting in a linear relationship between the number of colonies and the first order of virus concentration. […]
After drying, the plates were stained with 2 ml of 1:20 Glemsa (Sigma) for 1 hour. […] All colonies containing 50 or more cells were scored.

HIV-1 = experiment: HIV syncitial forming assay using CEM-SS cells
Excerpt: The following cytomorphologic infectivity bioassay was used to characterize antiviral activity against HIV-1. In the following assay a single infectious unit of virus infects a single cell and initiates a focal expression of that infection, i.e., a syncitium. Since a single infectious unit leads to a discrete response, a linear relationship exists between the number of virally-induced cytopathic effects and the first order of virus concentration. Application of this procedure in assays for virus inactivation allows for evaluation of the candidate antiviral agent.
CEM-SS (syncitium-sensitive Leu 3a-positive CEM cell line) cells were grown in RPMI 1640 cell culture media (Irvine Scientific) supplemented with 10% heat-inactivated fetal bovine serum (Gemini Bioproducts) and 1% […] glutamine (Gibco). Log-phase cells were split 1:2 with the growth medium the day prior to setting up the assay to standardize plating conditions and to assure a population of logarithmically growing cells. Ninety-six-well plates (Costar) were pretreated with 50 μl of 50 μg/ml poly-1-lysine (MW=295,000 Sigma) "PLL") and were left at room temperature for 60 minutes. Residual PLL was removed with two washes of PBS. The plates were stored in the incubator until used.
On the day of the assay, the cells were counted and enough cells were harvested to plate each well with 5.0×10^4 cells per well in a volume of 200 μl (or 20 ml of […] was appropriate for each 96-well microtitre plate).
The cells were plated out on the PLL pre-treated microtitre plates at 5.0×10^4 cells/well in a volume of 200 μl. After allowing attachment for 30 minutes at 37° C. and 5% CO2, the antiviral agent(s) were added in the noted amounts and the treated plates were pre-incubated for 24 hours.
The HIV-1 virus stock (isolated from infected H-9 cells) was diluted in growth medium to yield 100 SFU (syncytial-forming units) per well. Diluted HIV-1 virus, 20 μl, was added to appropriate wells. All the plates were then incubated for 5 days at 37° C. and 5% CO2. On day 5 post-infection, the cells were given a 100 μl media change. […]

## NC(=O)c1ncn([C@@H]2O[C@H](CO)[C@@H](O)[C@H]2O)c1N [AICA riboside, 5-amino-1-β-D-ribofuranosyl-imidazole-4-carboxamide]
[1]
  inhibition at 500 µM: 30 to 50%
[2]
  inhibition at 500 µM: 30 to 50%
[3]
  effectiveness against murine retroviruses: effective
HIV-1; AICA riboside 5 μM and 50 μM, 24 hour preincubation before HIV infection
  antiviral effect (number of syncitia): antiviral effect
HIV-1; CEM cells, HIV
  antiviral effect with preincubation versus addition at the time of infection: more effective as an antiviral with preincubation
